This test concerns C3Hf/Kam and C57B16/J mice. The test can be described thus: Animal Whole Body Irradiation (WBI) assay, mitigation of lethality. The format is in vivo. Here is the method: Briefly, Animal Whole Body Irradiation (WBI) Assays were conducted with C3Hf/Kam and C57B16/J mice. The mice were bred and maintained in a strict gnotobiotic environment in the American Association of Laboratory Animal Care-Accredited Animal Facilities of Department of Radiation Oncology, UCLA. The Animal Care and Use Committee approved all experiments, which were performed in accordance with all local and national guidelines for the care and use of animals. Mice, 9-12 weeks old, were given WBI using a Gamma cell 40 irradiator (Cs137 source; Atomic Energy of Canada, Ltd.) at a dose rate of […]. Mice were monitored for at least 30 days and defined criteria for humane euthanasia was used as an endpoint.
Compounds were typically dissolved in 15 μL DMSO and suspended in 1 mL of 1% Cremphor EL in water for administration in 0.2 mL volumes. […] All mice, including controls, received the same diluent as the experimental groups. The chosen compounds were administered to the mice 5 times at 24 h intervals, starting 24 hours after WBI at LD70/30 (7.725 Gy for the C3H strain) doses. Similar data were obtained with a single dose and at 48 hours after radiation exposure in both mouse strains. Both subcutaneous and oral routes were effective. The compounds provided greatly elevated animals survival level as compared to control group.
Dose response experiments were executed in a manner similar to the WBI Assay described in Example 3. […] Both Compound 2 (53555.12) and Compound 3 (5346360) were effective in C57Bl/6 female mice in this case mitigating against LD70/30 doses of 8.509 Gy due to the relative radioresistance of this strain relative to C3Hs. […] When given orally by gavage, Compound 2 (535551.2) in 5 daily doses starting at 24 hours post-WBI was effective at 5 mg/kg in both C3H and C57Bl/6 strains, but not at 25 mg/kg.
Probit analyses of the effect of varying the radiation dose with Compound 2 (5355512) (5 mg/kg), and Compound 3 (5346360) (5 mg/kg), or 5 (5116319) (75 mg/kg) given subcutaneously for 5 days starting 24 hours after WBI, is shown in FIG. 6, with 95% confidence limits shown for LD50 values. The dose-response curves are steep with the dose modifying factors varying with the level of effect and drug, but were in the range 1.04-1.09. Such factors have to be considered against the level of the control and the reason for lethality. In this case, hematological insufficiency and not infection is the cause of death and as a result the radioresistance of the C3H strain is relatively high.
Compounds P1, P2, and P3, analogs of Compound 2 (5355512), were synthesized according to standard protocols. […] The analogs were injected subcutaneously 5 times over 5 clays at 5 mg/kg. Compound P2 elicited 100% survival after 30 days.

The record followed here is US9840483B2, “Radiomitigating pharmaceutical formulations” (The Regents of the University of California, priority 2013, dated 2017).

`O=[N+]([O-])c1ccc(S(=O)(=O)N2CCN(c3ccccc3)CC2)cc1` [Compound 2, 1-[(4-nitrobenzene)sulfonyl]-4-phenylpiperazine]: under “5 mg/kg injected subcutaneously”, the “Mitigation of WBI lethality at 5 mg/kg” value is “effective”. The “Most effective dose in dose response” value (C3H male mice, compared with 1, 2, 10, 40, or 75 mg/kg) stood at 5 mg/kg. In addition, the “Mitigation of WBI lethality in C57Bl/6 female mice” value (C57Bl/6 female mice, LD70/30 dose 8.509 Gy) is on record as “effective”. Also, the “Survivors at day 30” value (lowest dosage 5 mg/kg subcutaneously, superior to 40 and 75 mg/kg) is 100%. In addition, the “Mitigation of WBI lethality, oral gavage 5 mg/kg” value (orally by gavage, 5 daily doses starting 24 hours post-WBI, 5 mg/kg, C3H and C57Bl/6 strains) is “effective”. Besides, the “Mitigation of WBI lethality, oral gavage 25 mg/kg” value (orally by gavage, 5 daily doses starting 24 hours post-WBI, 25 mg/kg, C3H and C57Bl/6 strains) was “not”. In addition, the “Mitigation of WBI lethality, single dose at 48 hours” value (single dose given 48 hours after WBI) was “Some activity was retained”. Further, under “single dose given 72 hours after WBI”, the “Mitigation of WBI lethality, single dose at 72 hours” value is recorded as “not”. In addition, the “Effect of increasing the single dose” value (single dose increased to 25 mg/kg, 24 hours after WBI) is “did not improve efficacy”. Also, the “Mitigation of WBI lethality, single dose” value (single dose of 5 mg/kg given 24 hours after WBI) is “effective”.
